Target: PKCδ-C1b (Mus musculus, UniProt P28867)
Assay: Kd measured in the peptide-phospholipid composition used for NMR
Type: binding

Sequence of PKCδ-C1b (P28867 231-281 limits assumed): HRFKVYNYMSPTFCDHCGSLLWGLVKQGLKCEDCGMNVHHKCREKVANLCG

CCCC(=O)O[C@@H]1[C@@H](C)[C@@]2(O)[C@@H](C=C(CO)C[C@]3(O)C(=O)C(C)=C[C@@H]23)[C@@H]2C(C)(C)[C@]12OC(=O)CCC [phorbol 12,13-dibutyrate] was tested, and the Kd was 1.5 nM.

From article PMC5785774 (ACS Central Science, 2018)
